From article PMC5344979, “Stabilizing short-lived Schiff base derivatives of 5-aminouracils that activate mucosal-associated invariant T cells” (Nature Communications, 2017)

Legend:
[1] = physchem; conditions: for half-life: PBS buffer
Experimental: (§2) Stock solutions of either crude (3a, 3b and 9) or purified compounds (3c, 10 and 11) in DMSO-d6, with a known concentration calibrated using the PULCON NMR technique[52], were dissolved in aqueous buffers, such as TBS buffer (10 mM Tris, 150 mM NaCl, pH 8.0), PBS (pH 7.4), MilliQ water (pH 6.8), or aqueous ammonium acetate buffer (20 mM, pH 5.4, 150 mM NaCl). Consumption of 3 was monitored by LCMS.
(§3) Stability in aqueous media. TBS buffer (10 mM Tris, 150 mM NaCl,
(§4) pH 8.0), PBS (pH 7.4), MilliQ water (pH 6.8), or ammonium acetate buffer (20 mM, 150 mM
(§5) The initial concentration was quantified by measuring the LCMS UV chromatogram
(§6) absorbance peak area at 365 nm. Data shown as % of initial concentration.

[2] = Stability in aqueous media (LCMS); conditions: for t1/2: C0 0.065 mM
Experimental: as §2, §3, §4, §5, §6

[3] = Stability in DMSO (NMR); type: physicochemical; conditions: for days at room temperature
[4] = test system: MR1 on C1R.MR1 cells; experiment: Upregulation of MR1 surface expression; type: cell-based, human; conditions: 24 h time course, mAb 26.5
Experimental: (§1) MAIT reporter cell activation assays and MR1 upregulation assays were performed by slight modifications to reported methods. Briefly, Jurkat cells transduced with genes encoding a MAIT TCR comprising the TRAV1-2-TRAJ33 invariant α chain, and a TRBV6-1 β chain, were tested for activation by co-incubation with compounds and C1R antigen-presenting cells expressing MR1 (CIR.MR1) for 16 h or over a time course as indicated. Cells were subsequently stained with PE-Cy7-conjugated anti-CD3 (UCHT1, eBioscience, 1:300), and APC-conjugated anti-CD69 (BD, 1:25) antibodies as well as biotinylated anti-MR1 mAb 26.5, a gift from Dr Ted Hansen, Washington University School of Medicine, St Louis, MO[53], followed by Streptavidin-PE (BD, 1:1,000), before analysis by on a FACS CantoII (BD) flow cytometer. Activation of Jurkat.MAIT was measured by an increase in surface CD69 expression. MR1 expression was detected on gated C1R.MR1 cells in the same assay.

[5] = test system: human MAIT TCR-transduced Jurkat T cells and MR1-overexpressed C1R cells; experiment: MAIT reporter cell activation assay (surface CD69 on Jurkat.MAIT); type: cell-based; conditions: Jurkat.MAIT + C1R.MR1, 16 h
Experimental: MAIT activation was evaluated using a well established reporter assay[17] by co-culturing two cell lines (human MAIT TCR-transduced Jurkat T cells and MR1-overexpressed C1R cells, Fig. 3g).
as §1, with “assay. […]” for “assay.”
MAIT reporter cell activation assay
Conducted as described previously16. Jurkat cells transduced with genes encoding a MAIT TCR comprising the TRAV1-2-TRAJ33 invariant α chain and a TRBV6-1 β chain were co-incubated with C1R antigen presenting cells expressing MR1 (CIR.MR1) in the presence of graded amounts of ligands for 16 h. Cells were subsequently stained with PE-Cy7-conjugated anti-CD3 (eBioscience), and APC-conjugated anti-CD69 (BD Biosciences) antibodies, followed by Streptavidin-PE (BD Biosciences), before analysis by flow cytometry. Activation of Jurkat.MAIT cells was measured by an increase in surface CD69 expression.

[6] = molecular target: T1, human MR1 (Homo sapiens, UniProt Q95460); experiment: MR1 refolding with ligand; type: binding; conditions: in the presence of the compound
T1 construct: Genes encoding soluble human MR1 or human β2m were expressed; made in house
Experimental: E. coli were pelleted and resuspended in a buffer containing 50 mM Tris, 25% (w/v) sucrose, 1 mM EDTA, 10 mM DTT pH 8.0.

[7] = test system: human MAIT cells; experiment: In vitro PBMC stimulation assay (intracellular cytokine staining); type: cell-based; conditions: human PBMCs alone or with THP-1 cells
Experimental: To assess the ability of 11 to activate MAIT cells, human PBMCs were cultured alone, or with THP-1 cells, in the presence of the compounds, and cytokine production assessed by intracellular cytokine staining.
Stimulation of PBMCs was performed essentially as previously described. Briefly, 5 × 10^5 PBMCs were cultured, alone or with 1 × 10^5 THP-1 cells, overnight with or without compounds 3c or 11 at a range of doses or with PMA and ionomycin (5 ng ml^−1 and 1 μg ml^−1 final concentrations, respectively) as a positive control. BD GolgiStop (1:1,000 dilution) was added after the first hour of stimulation. Cells were stained for surface markers using human MR1-5-OP-RU tetramer (PE, 1:300), and monoclonal antibodies to CD3 (PE-CF594, UCHT1, BD Horizon, 1:50), CD161 (PE-Cy7, HP-3G10, Biolegend, 1:50) for 30 min on ice and fixed in 1% paraformaldehyde before cytokine production by MAIT cells was detected by intracellular cytokine staining with monoclonal antibodies to TNF (APC, MAb11, eBioscience, 1:50) and IFNγ (AlexaFluor700, B27, BD 1:50) in the presence of 0.3% saponin. Data was acquired on a BD LSR-Fortessa and analysed using FlowJo software (Tree Star).

[8] = PBS pH 7.4, 37 °C, DMSO stock diluted into buffer

T1 sequence (P61769 21-119): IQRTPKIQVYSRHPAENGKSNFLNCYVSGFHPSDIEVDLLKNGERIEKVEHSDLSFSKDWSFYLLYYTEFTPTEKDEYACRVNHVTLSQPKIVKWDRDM
T1 sequence (Q95460 23-302): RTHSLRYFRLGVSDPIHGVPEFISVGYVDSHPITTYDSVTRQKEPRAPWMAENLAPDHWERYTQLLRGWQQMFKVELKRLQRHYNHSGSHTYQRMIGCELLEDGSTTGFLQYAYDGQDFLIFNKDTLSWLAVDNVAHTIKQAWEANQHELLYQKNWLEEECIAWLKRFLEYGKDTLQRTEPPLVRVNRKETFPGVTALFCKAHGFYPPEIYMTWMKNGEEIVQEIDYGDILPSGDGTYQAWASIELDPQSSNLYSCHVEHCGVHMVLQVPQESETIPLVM

CC(=O)C=Nc1c(NCC(O)C(O)C(O)CO)[nH]c(=O)[nH]c1=O [3c, 5-(2-oxopropylideneamino)-6-D-ribitylaminouracil]
half-life at 1 mM ([1]; MilliQ water, pH 6.8): 7.68 h
half-life ([1]; pH 7.4): 0.2 h
half-life ([1]; pH 8): 14 h
half-life at 0.065 mM ([1]; TBS buffer, pH 8): 14.4 h
half-life at 0.25 mM ([1]; TBS buffer, pH 8): 14.9 h
half-life at 10 mM ([1]; TBS buffer, pH 8): 8.63 h
t1/2 ([2]; PBS pH 7.4, 15 °C): 5.7 h
t1/2 [2, 8]: 1.47 h
t1/2 ([2]; pH 5.4 ammonium acetate buffer, 15 °C): 0.733 h
t1/2 ([2]; pH 5.4 ammonium acetate buffer, 37 °C): 0.217 h
half-life ([2]; pH 6.8 (MilliQ water), 15 °C, 0.065 mM): 12 h
t1/2 ([2]; pH 6.8 MilliQ water, 15 °C): 12.3 h
t1/2 ([2]; pH 6.8 MilliQ water, 37 °C): 2.18 h
stable in DMSO solution [3]: > 95%
time at which MR1 upregulation peaked [4]: 4 h

O=CC=Nc1c(NCC(O)C(O)C(O)CO)[nH]c(=O)[nH]c1=O [3b, 5-(2-oxoethylideneamino)-6-D-ribitylaminouracil]
half-life at 0.065 mM ([1]; TBS buffer, pH 8): 0.3 h
EC50 [5]: 0.51 nM

Nc1c(NC[C@H](O)[C@H](O)[C@H](O)CO)[nH]c(=O)[nH]c1=O [compound 1, 5-amino-6-D-ribitylaminouracil, reference compound]
EC50 [5]: 18 nM

CC(=O)/C=N/c1c(N(C)C[C@H](O)[C@H](O)[C@H](O)CO)[nH]c(=O)[nH]c1=O [compound 9]
t1/2 ([2]; PBS pH 7.4, 15 °C): 1.92 h
t1/2 [2, 8]: 0.65 h
EC50 [5]: 14 ± 14 nM

CC(=O)/C=C/c1c(CC[C@H](O)[C@H](O)[C@H](O)CO)[nH]c(=O)[nH]c1=O [compound 11]
refolding of human MR1 [6]: readily refolded
aqueous stability ([2]; PBS buffer pH 7.4, 37 °C, 5 days): no degradation observed over 5 days
MR1 surface expression [4]: continued to increase over 24 h
cytokine production by human MAIT cells [7]: stimulated the production of interferon-γ (IFNγ) and tumour necrosis factor (TNF)

CC(=O)C(C)=Nc1c(NCC(O)C(O)C(O)CO)[nH]c(=O)[nH]c1=O [3a, 5-(1-methyl-2-oxopropylideneamino)-6-D-ribitylaminouracil]
time to complete degradation ([2]; pH 8.0, 15 °C): < 5 min
EC50 [5]: 24 nM

Cc1cnc2c(=O)[nH]c(=O)nc-2n1C[C@H](O)[C@H](O)[C@H](O)CO [4c]
EC50 [5]: > 100 nM

CC(=O)/C=C/c1c(N(C)C[C@H](O)[C@H](O)[C@H](O)CO)[nH]c(=O)[nH]c1=O [compound 10]
t1/2 ([2]; PBS pH 7.4, 15 °C): 10.2 h
t1/2 [2, 8]: 2.25 h
EC50 [5]: > 10000 nM
